# Laboratory results as given in US7877241B2, “System and method for identifying behavioral signatures” (University of Maryland, Baltimore, priority 2005, dated 2011).
# Read-outs that look alike come from different tables or passages of the source.
# Legend:
# C57BL/6J mice = settings: cited from earlier work
# [1] = system: behavioral effects of cocaine; settings: in vivo; cited from earlier work
# DBA/2J mice = settings: cited from earlier work
# C57BL/6J males = assay: SEE open-field test with pattern screening of mice injected with anxiolytic and anxiogenic drugs; format: in vivo, mouse; settings: vs vehicle, diazepam 1 or 2 mg/kg, FG-7142 10 mg/kg, PTZ 20 mg/kg, i.p., training set only
# Experimental: Behavioral data for the exemplary embodiments was gathered using the SEE open-field test described above. A mouse was introduced to a 2.5 meter circular pen and allowed to freely explore the pen for 30 minutes while the mouse's location was video-tracked and digitized at a rate of 25-30 Hz with a spatial resolution of approximately 1 cm. The tracked coordinates are stored on a storage device and imported into the SEE software. Using SEE software procedures the path is further smoothed and segmented into stops and progression segments. The data file of each animal thus included 45,000-54,000 data pints of its coordinates in the arena. Because small, local movements during stopping cannot be properly captured using available tracking technology, the analysis was limited to progression segments. Depending on the activity of the test subject, progression segments generally contain […] (100-1000 s) per animal. […]
# FIG. 3 is a flow chart for a method of isolating candidate behavioral patterns according to an embodiment of the present invention. In step 302, the data points are quantified for a feature vector. In the embodiment of the present invention being described, each data point observed during the animal progression is quantified using seven “features” (variables) (t, d, v, a, j, h, c). […]
# In step 306, the difference in relative frequencies are analyzed. […]
# [2] = database having only C57BL/6J mice
structure (smiles),measurement,setting,value
"CNC(=O)c1cc2c(cn1)[nH]c1ccccc12 [FG 7142, b-Carboline-3-carboxylic acid N-methylamide]",path curvature,C57BL/6J mice; [2],increased
CCCCN1[C@@H]2CC[C@H]1CC(OC(c1ccc(F)cc1)c1ccc(F)cc1)C2 (some centres unmarked) [JHW007],antagonizing the behavioral effects of cocaine,[1],effective in antagonizing the behavioral effects of cocaine
O=C(NCCCCN1CCN(c2cccc(Cl)c2Cl)CC1)c1ccc2c(c1)Cc1ccccc1-2 [NGB2904],antagonizing the behavioral effects of cocaine,[1],effective in antagonizing the behavioral effects of cocaine
CC(N)Cc1ccccc1 (centres unmarked) [amphetamine],increase in distance traveled,C57BL/6J mice; C57BL/6J strain (both strains),3 fold
same,path curvature,"C57BL/6J mice; C57BL/6 mice, genotype comparison DBA/2J vs. C57BL/6J",decreased
same,path curvature,"DBA/2J mice; BDA/2J mice (so in the source), genotype comparison DBA/2J vs. C57BL/6J",no effect
same,increase in distance traveled,DBA/2J mice; DBA/2J strain (both strains),3 fold
CN1C(=O)CN=C(c2ccccc2)c2cc(Cl)ccc21 [diazepam],"relative frequency of performing first pattern (3,*,*,4,1,*,3)",C57BL/6J males; FIG. 6A,significantly reduced
same,"relative frequency of performing second pattern (3,1,4,*,3,5,*)",C57BL/6J males; FIG. 6B,dose-dependent effect
same,path curvature,C57BL/6J mice; [2],dose-dependently decreased
C1CCc2nnnn2CC1 [pentylenetetrazole],path curvature,C57BL/6J mice; [2],increased
